The data set has as its system skin of the mice. Nature of the data set: Skin irritation test in mice (Draize scoring, Primary Irritation Index). Format: in vivo, Balb/c mice. The note with it: for primary irritation index: 24 hr exposure, scored at 24 and 72 hours; for primary irritation index / evaluation of primary irritation index: mice; for mice with very slight erythema: n=6. On the procedure: Lauryl methyl pyrifrin and TMP, two synthesized meso-substituted cationic porphyrins, were tested in vivo to determine the dermal irritation potential to the skin of the mice. The two test agents were prepared with three different concentrations individually, 3 μM, 30 μM, and 300 μM. 10% formic acid and PBS were used as positive and negative control respectively (n=6). […] The back of the animals were clipped free of fur with an electric clipper at least 4 hours before application of the sample. Prior to the application of test agents, each mouse received four parallel epidermal abrasions with a sterile needle at one side of the test area while the skin at the opposite side remained intact. Under anesthesia condition, a 0.5 ml sample of the test article was then applied to each mouse by introduction under a double gauze layer to an area of skin approximately 1″×1″ (2.54×2.54 cm) square. The patches were backed with plastic, covered with a non reactive tape and the entire test site wrapped with a binder. Animals will be returned to their cages. […] The Primary Irritation Index (P.I.I.) (sum of the scored reactions divided by 24 (two scoring intervals multiplied by two test parameters multiplied by six mice)) of the test article was calculated following test completion. A material producing a P.I.I. score of greater than or equal to 5.00 would be considered positive; the material would be considered a primary irritant to the skin (Table 2).

For `CCCCCCCCCCCC[n+]1ccc(-c2c3nc(c(-c4cc[n+](C)cc4)c4ccc([nH]4)c(-c4cc[n+](C)cc4)c4nc(c(-c5cc[n+](C)cc5)c5ccc2[nH]5)C=C4)C=C3)cc1.Cc1ccc(S(=O)(=O)[O-])cc1.Cc1ccc(S(=O)(=O)[O-])cc1.Cc1ccc(S(=O)(=O)[O-])cc1.Cc1ccc(S(=O)(=O)[O-])cc1` [lauryl methyl pyrifrin], the primary irritation index runs as follows: (3 μM) 0.00; (30 μM) 0.175; (300 μM) 1.4. Also, the “evaluation of primary irritation index” value is given as “no irritation” (3 μM), “irritation barely perceptible” (30 μM) and “slight irritation” (300 μM). Moreover, the erythema observed result is “very slight erythema” (30 μM, after 24 hours, abraded area implied); “very slight erythema” (30 μM, after 72 hours); “very slight erythema” (300 μM, after 24 hours, abraded area implied). In addition, the “mice with very slight erythema” value by setting is: (30 μM, after 24 hours) 2/6; (300 μM, after 24 hours) 6/6. In addition, the edema observed entry (300 μM, after 24 hours) is listed as “Slight edema”. Where the note is “intact area, all concentrations except 300 μM TMP”, the “erythema and edema at the intact area” value was “no erythema and edema”.
